Series [1] has as its system guinea pigs. As to conditions: guinea pig, in vivo; cited from earlier work.
The target of series [2] is AChE, eel (acetylcholinesterase, EC 3.1.1.7) (Electrophorus electricus, UniProt O42275). The format is biochemical, electric eel.
The target in series [3] is BuChE, horse (butyrylcholinesterase, EC 3.1.1.8) (Equus caballus, UniProt P81908). The format is biochemical.

Where a name gives a salt, the structure may show the parent alone.

Chain of AChE, eel (acetylcholinesterase, EC 3.1.1.7) (O42275 24-633): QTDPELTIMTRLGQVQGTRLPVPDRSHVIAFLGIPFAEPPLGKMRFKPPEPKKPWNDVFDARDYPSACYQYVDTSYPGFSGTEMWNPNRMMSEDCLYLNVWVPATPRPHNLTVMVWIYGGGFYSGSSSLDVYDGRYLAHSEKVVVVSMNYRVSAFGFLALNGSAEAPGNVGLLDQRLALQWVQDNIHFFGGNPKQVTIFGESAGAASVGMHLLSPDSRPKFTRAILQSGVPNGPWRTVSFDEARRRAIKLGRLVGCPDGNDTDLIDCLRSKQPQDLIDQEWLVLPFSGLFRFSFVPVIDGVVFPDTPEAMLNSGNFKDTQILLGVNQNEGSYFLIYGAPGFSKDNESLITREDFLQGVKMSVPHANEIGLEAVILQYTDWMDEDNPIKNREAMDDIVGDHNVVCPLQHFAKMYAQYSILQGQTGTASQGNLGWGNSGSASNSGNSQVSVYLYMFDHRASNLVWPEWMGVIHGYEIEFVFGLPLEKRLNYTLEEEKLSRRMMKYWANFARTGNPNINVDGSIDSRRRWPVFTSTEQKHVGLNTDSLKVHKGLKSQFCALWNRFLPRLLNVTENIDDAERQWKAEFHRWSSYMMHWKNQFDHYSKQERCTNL
Chain of BuChE, horse (butyrylcholinesterase, EC 3.1.1.8) (P81908 whole entry): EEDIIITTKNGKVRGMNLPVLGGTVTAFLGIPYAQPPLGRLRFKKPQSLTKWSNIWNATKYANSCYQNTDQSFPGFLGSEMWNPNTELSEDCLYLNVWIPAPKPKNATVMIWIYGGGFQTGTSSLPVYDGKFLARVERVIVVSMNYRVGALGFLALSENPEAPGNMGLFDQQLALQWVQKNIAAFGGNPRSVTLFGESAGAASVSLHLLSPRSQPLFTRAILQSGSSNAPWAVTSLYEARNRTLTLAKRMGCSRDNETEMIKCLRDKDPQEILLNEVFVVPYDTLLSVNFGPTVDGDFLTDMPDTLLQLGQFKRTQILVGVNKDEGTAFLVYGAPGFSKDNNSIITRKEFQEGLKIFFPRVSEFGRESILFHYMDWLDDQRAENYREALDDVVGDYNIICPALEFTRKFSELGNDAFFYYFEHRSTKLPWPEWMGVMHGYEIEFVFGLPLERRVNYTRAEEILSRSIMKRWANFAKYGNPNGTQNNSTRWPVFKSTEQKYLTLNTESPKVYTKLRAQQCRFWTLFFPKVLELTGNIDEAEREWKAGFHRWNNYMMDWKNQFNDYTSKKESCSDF

Regarding `CN(C)C(=O)Oc1ccc[n+](C)c1` [pyridostigmine iodide], in series [1], the “maximum dosage which does not result in side-effects” value was 0.1 mg/kg.

As to `C[n+]1cccc(C=NO)c1` [3-PAM], the “effect of oxime on spontaneous reactivation of TDPI-inhibited AChE” value in series [2] is “did not enhance the regeneration of enzyme activity”.

In the case of `C[n+]1ccccc1C=NO.[I-]` [2-PAM, 2-hydroximinomethyl-1-methylpyridinium iodide], the “effect of oxime on spontaneous reactivation of TDPI-inhibited AChE” value in series [2] is reported as “accelerated significantly the spontaneous reactivation”. Besides, the “effect of oxime on reactivation of TDPI-inhibited BuChE” value in series [3] is “enhanced the reactivation of horse serum BuChE”.

With `CNC(=O)Oc1ccc2c(c1)[C@]1(C)CCN(C)[C@@H]1N2C` [physostigmine sulfate], the “maximum dosage which does not result in side-effects” value in series [1] is 0.1 mg/kg.

The values are drawn from patent publication US4472320A (priority 1981, dated 1984).
